The source of these data is US10703755B2, “Substituted purine derivative” (SUMITOMO DAINIPPON PHARMA CO., LTD., priority 2016, dated 2020).

SMILES strings stand for the structures. pIC50: −log10 of the molar value.

In this experiment the target is human TLR7 (Homo sapiens (Human), UniProt Q9NYK1). Put plainly: Test for evaluating the inhibition of the activation of human TLR7 (SEAP reporter, TLR7/NF-κB/SEAPorter HEK293 cell). The conditions noted are these: R-848 200 nmol/L; for inhibitory effect against TLR7 in the test for evaluating inhibition of the activation of TLR7: SEAP activity, result in words; for pIC50: SEAP reporter. It counts as cell-based. As for the experimental part: As human TLR7 expressing cell line, HEK293 cell line was bought from IMGENEX Corporation (TLR7/NF-ηB/SEAPorter™ HEK293 cell), which is human embryonic kidney cell line and stably expresses full-length human TLR7 gene and secreted alkaline phosphatase (SEAP) reporter gene under the transcriptional control of an NE-ηB response element. The TLR7/NF-ηB/SEAPorter™ HEK293 cell was cultivated with DMEM containing 10% fetal bovine serum (FBS) and 10 μg/mL blasticidin S at 37° C. in the presence of 5% CO2. The TLR7/NF-ηB/SEAPorter™ HEK293 cell was seeded into 96-well microtiter plate at 5×10^4 cell/90 μL/well, and the place was cultivated at 37° C. in a CO2 incubator overnight.
Each compound prepared in the Examples was evaluated by Test 1.

Chain of human TLR7 (Q9NYK1 27-1049): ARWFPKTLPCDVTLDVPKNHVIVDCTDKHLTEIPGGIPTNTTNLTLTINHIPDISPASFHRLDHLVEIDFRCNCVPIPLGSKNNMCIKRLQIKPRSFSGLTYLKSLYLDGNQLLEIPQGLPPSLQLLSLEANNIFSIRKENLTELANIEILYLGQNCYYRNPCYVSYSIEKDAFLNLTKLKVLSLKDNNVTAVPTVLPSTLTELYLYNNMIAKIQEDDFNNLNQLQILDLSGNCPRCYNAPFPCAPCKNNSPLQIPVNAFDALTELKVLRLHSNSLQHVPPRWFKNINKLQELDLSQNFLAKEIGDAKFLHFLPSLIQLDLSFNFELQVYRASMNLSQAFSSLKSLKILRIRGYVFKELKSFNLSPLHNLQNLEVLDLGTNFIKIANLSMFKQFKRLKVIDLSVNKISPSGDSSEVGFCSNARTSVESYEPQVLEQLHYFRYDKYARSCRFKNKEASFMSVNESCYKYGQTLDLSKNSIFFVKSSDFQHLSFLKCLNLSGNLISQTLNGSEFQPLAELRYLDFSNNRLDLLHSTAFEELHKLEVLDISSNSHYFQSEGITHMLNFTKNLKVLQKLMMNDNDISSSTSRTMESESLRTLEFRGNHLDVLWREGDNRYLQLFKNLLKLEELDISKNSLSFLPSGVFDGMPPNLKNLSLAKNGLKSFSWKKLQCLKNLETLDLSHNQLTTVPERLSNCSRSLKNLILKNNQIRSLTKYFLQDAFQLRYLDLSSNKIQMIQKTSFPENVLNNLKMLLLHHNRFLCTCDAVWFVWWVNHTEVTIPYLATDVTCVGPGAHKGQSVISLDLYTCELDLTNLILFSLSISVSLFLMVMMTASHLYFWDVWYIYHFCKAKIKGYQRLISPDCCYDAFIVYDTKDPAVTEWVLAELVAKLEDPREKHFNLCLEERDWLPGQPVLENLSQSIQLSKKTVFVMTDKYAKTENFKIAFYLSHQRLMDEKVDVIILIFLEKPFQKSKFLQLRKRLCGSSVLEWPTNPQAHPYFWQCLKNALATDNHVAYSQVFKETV

What is called pIC50 is the IC50 on a negative log10 scale, so that one unit is a factor of ten. Low readings indicate a high IC50, high ones a low IC50. For `COc1nc(C)c2nc(-c3cncc(F)c3)n(Cc3ccc(O[C@@H]4CN5CCC4CC5)nc3)c2n1` [Example 69, 9-({6-[(3S)-1-azabicyclo[2.2.2]oct-3-yloxy]pyridin-3-yl}methyl)-8-(5-fluoropyridin-3-yl)-2-methoxy-6-methyl-9H-purine], the “inhibitory effect against TLR7 in the test for evaluating inhibition of the activation of TLR7” value (“inhibitory effect against TLR7” for short) is given as “potent inhibitory effect against TLR7” and the pIC50 was 6.89.

With `COc1nc(C)c2nc(-c3cncc(F)c3)n(Cc3ccc(O[C@H]4CN5CCC4CC5)nc3)c2n1` [Example 70], the “inhibitory effect against TLR7” value is “potent inhibitory effect against TLR7” and the pIC50 is 6.96.

Regarding `CCOc1nc(C)c2nc(-c3cncc(F)c3)n(Cc3ccc(O[C@@H]4CN5CCC4CC5)nc3)c2n1` [Example 71, 9-({6-[(3S)-1-azabicyclo[2.2.2]oct-3-yloxy]pyridin-3-yl}methyl)-2-ethoxy-8-(5-fluoropyridin-3-yl)-6-methyl-9H-purine], the “inhibitory effect against TLR7” value is reported as “potent inhibitory effect against TLR7” and the pIC50 was 7.24.

Consider `CCOc1nc(C)c2nc(-c3cncc(F)c3)n(Cc3ccc(O[C@H]4CN5CCC4CC5)nc3)c2n1` [Example 72], for which the “inhibitory effect against TLR7” value is “potent inhibitory effect against TLR7” and the pIC50 is 7.09.

For the compound `CCOc1nc(C)c2nc(-c3cncc(F)c3)n(Cc3ccc(OCC4CN5CCC4CC5)nc3)c2n1` (stereo not shown) [Example 73], the pIC50 is 6.80.

As for `CCCOc1nc(C)c2nc(-c3cncc(F)c3)n(Cc3ccc(O[C@@H]4CN5CCC4CC5)nc3)c2n1` [Example 75], the pIC50 is 6.70.

The compound `CCCOc1nc(C)c2nc(-c3cncc(C)c3)n(Cc3ccc(O[C@@H]4CN5CCC4CC5)nc3)c2n1` [Example 76] showed a pIC50 of 6.40.

`CCOc1nc(N)c2nc(-c3cncc(F)c3)n(Cc3ccc(CO)cc3)c2n1` [Example 77, (4-{[6-Amino-2-ethoxy-8-(5-fluoropyridin-3-yl)-9H-purin-9-yl]methyl}phenyl)methanol] showed a pIC50 of 5.62.

`CCOc1nc(C)c2nc(-c3cncc(F)c3)n(Cc3ccc(CO)cc3)c2n1` [Example 78] had a pIC50 of 5.89.

In turn, `CCCCOc1nc(C)c2nc(-c3cncc(F)c3)n(Cc3ccc(CO)cc3)c2n1` [Example 79] gave a pIC50 of 5.46.

Compound `CCOc1nc(N)c2nc(-c3cncc(F)c3)n(Cc3ccc(CN(C)C)cc3)c2n1` [Example 80, 9-{4-[(Dimethylamino)methyl]benzyl}-2-ethoxy-8-(5-fluoropyridin-3-yl)-9H-purine-6-amine] had a pIC50 of 6.27.

For the compound `CCOc1nc(N)c2nc(-c3cncc(F)c3)n(Cc3ccc(CN4CCN(C)CC4)cc3)c2n1` [Example 81], the “inhibitory effect against TLR7” value was “potent inhibitory effect against TLR7” and the pIC50 was 7.22.

For `CCCCOc1nc(N)c2nc(-c3cncc(F)c3)n(Cc3ccc(CN(C)C)cc3)c2n1` [Example 82], the pIC50 is 6.40.

`CCCCOc1nc(N)c2nc(-c3cncc(F)c3)n(Cc3ccc(CN4CCOCC4)cc3)c2n1` [Example 83] showed a pIC50 of 5.89. This pIC50 is 0.51 log units lower than that of the compound before.

In the case of `CCCCOc1nc(N)c2nc(-c3cncc(C)c3)n(Cc3cccc(CN(C)C)c3)c2n1` [Example 85], the pIC50 is 6.10.

As for `CCCCOc1nc(N)c2nc(-c3cncc(F)c3)n(Cc3cccc(CN4CCOCC4)c3)c2n1` [Example 86], the pIC50 is 6.52.

For the compound `COCCOc1nc(N)c2nc(-c3cncc(F)c3)n(Cc3ccc(CN(C)C)cc3)c2n1` [Example 87], the pIC50 is 5.60.

The compound `COCCOc1nc(N)c2nc(-c3cncc(F)c3)n(Cc3ccc(CN4CCOCC4)cc3)c2n1` [Example 88] gave a pIC50 of 6.05.

Consider `COCCOc1nc(N)c2nc(-c3cncc(F)c3)n(Cc3cccc(CN(C)C)c3)c2n1` [Example 89], for which the pIC50 is 5.85.

For the compound `COCCOc1nc(N)c2nc(-c3cncc(F)c3)n(Cc3cccc(CN4CCOCC4)c3)c2n1` [Example 90], the pIC50 was 5.38. This pIC50 lies 0.47 log units lower than the previous one.

Take `COCCOc1nc(N)c2nc(-c3cncc(F)c3)n(Cc3ccc(CN4CCCCC4)cc3)c2n1` [Example 91]: the pIC50 is 6.60.

Consider `COCCOc1nc(N)c2nc(-c3cncc(F)c3)n(Cc3ccc(CN4CCC(F)(F)CC4)cc3)c2n1` [Example 92], for which the pIC50 was 6.43.

As for `CCOc1nc(N)c2nc(-c3cncc(F)c3)n(Cc3ccc(CN4CCN(C)C(=O)C4)cc3)c2n1` [Example 93], the pIC50 is 6.54. The pIC50 values of the last two compounds are within 0.2 log units of each other.

`CCOc1nc(N)c2nc(-c3cncc(F)c3)n(Cc3ccc(CN4C[C@@H]5C[C@H]4CN5C)cc3)c2n1` [Example 94]: the “inhibitory effect against TLR7” value is reported as “potent inhibitory effect against TLR7” and the pIC50 was 7.70.

As for `CCOc1nc(N)c2nc(-c3cncc(F)c3)n(Cc3ccc(CN4[C@@H]5CC[C@H]4CN(C)C5)cc3)c2n1` [Example 95], the “inhibitory effect against TLR7” value is on record as “potent inhibitory effect against TLR7” and the pIC50 is 7.30.

For the compound `CCOc1nc(N)c2nc(-c3cncc(F)c3)n(Cc3ccc(CN4C[C@@H]5C[C@H]4CO5)cc3)c2n1` [Example 96], the “inhibitory effect against TLR7” value is listed as “potent inhibitory effect against TLR7” and the pIC50 is 7.10.

Compound `CCOc1nc(N)c2nc(-c3cncc(F)c3)n(Cc3ccc(CN4CCOCC4)cc3)c2n1` [Example 97] showed a pIC50 of 7.00.

For the compound `CCOc1nc(N)c2nc(-c3cncc(F)c3)n(Cc3ccc(CN4CCCCC4)cc3)c2n1` [Example 98], the “inhibitory effect against TLR7” value was “potent inhibitory effect against TLR7” and the pIC50 is 7.15.

`CCOc1nc(N)c2nc(-c3cncc(F)c3)n(Cc3ccc(CN4CCC(F)(F)CC4)cc3)c2n1` [Example 99] had a negative logarithm of the IC50 (pIC50) of 6.84.

Consider `CCOc1nc(N)c2nc(-c3cncc(F)c3)n(Cc3ccc(CN4CCC4)cc3)c2n1` [Example 100], for which the “inhibitory effect against TLR7” value was “potent inhibitory effect against TLR7” and the pIC50 is 7.02.

`CCOc1nc(N)c2nc(-c3cncc(F)c3)n(Cc3ccc(CN4CC(F)(F)C4)cc3)c2n1` [Example 101]: the “inhibitory effect against TLR7” value is “potent inhibitory effect against TLR7” and the negative logarithm of the IC50 (pIC50) was 7.25.

As to `CCOc1nc(N)c2nc(-c3cncc(F)c3)n(Cc3ccc(CN(C)CC(F)F)cc3)c2n1` [Example 102], the pIC50 is 6.09.

In turn, `CCOc1nc(N)c2nc(-c3cncc(F)c3)n(Cc3ccc(CN4CC(C#N)C4)cc3)c2n1` [Example 103] gave a pIC50 of 5.80.

The compound `CCOc1nc(N)c2nc(-c3cncc(F)c3)n(Cc3ccc(CN4CCCC4)cc3)c2n1` [Example 104] showed a pIC50 of 6.12.

Regarding `CCOc1nc(N)c2nc(-c3cncc(F)c3)n(Cc3ccc(CN4CC(C(F)F)C4)cc3)c2n1` [Example 105], the “inhibitory effect against TLR7” value is recorded as “potent inhibitory effect against TLR7” and the pIC50 was 7.23.

As for `CCOc1nc(N)c2nc(-c3cncc(F)c3)n(Cc3ccc(CN4CC(C)(O)C4)cc3)c2n1` [Example 106], the “inhibitory effect against TLR7” value is reported as “potent inhibitory effect against TLR7” and the pIC50 was 7.21.

Turning to `COc1nc(C)c2nc(-c3cncc(F)c3)n(Cc3ccc(CN4C[C@@H]5C[C@H]4CN5C)cc3)c2n1` [Example 107, 8-(5-fluoropyridin-3-yl)-2-methoxy-6-methyl-9-(4-{[(1S,4S)-5-methyl-2,5-diazabicyclo[2.2.1]hept-2-yl]methyl}benzyl)-9H-purine], the “inhibitory effect against TLR7” value is reported as “potent inhibitory effect against TLR7” and the pIC50 is 7.57.

`CCOc1nc(C)c2nc(-c3cncc(F)c3)n(Cc3ccc(CN4C[C@@H]5C[C@H]4CN5C)cc3)c2n1` [Example 109, 2-ethoxy-8-(5-fluoropyridin-3-yl)-6-methyl-9-(4-{[(1S,4S)-5-methyl-2,5-diazabicyclo[2.2.1]hept-2-yl]methyl}benzyl)-9H-purine]: the “inhibitory effect against TLR7” value is “potent inhibitory effect against TLR7” and the pIC50 is 8.00.

Take `CCOc1nc(C)c2nc(-c3cncc(F)c3)n(Cc3ccc(CN4C[C@H]5C[C@@H]4CN5C)cc3)c2n1` [Example 110, 2-ethoxy-8-(5-fluoropyridin-3-yl)-6-methyl-9-(4-{[(1R,4R)-5-methyl-2,5-diazabicyclo[2.2.1]hept-2-yl]methyl}benzyl)-9H-purine]: the “inhibitory effect against TLR7” value is on record as “potent inhibitory effect against TLR7” and the pIC50 was 8.30.

As to `CCCCOc1nc(C)c2nc(-c3cncc(F)c3)n(Cc3ccc(CN4CCOCC4)cc3)c2n1` [Example 112], the pIC50 was 7.00.

Regarding `COCCOc1nc(C)c2nc(-c3cncc(F)c3)n(Cc3ccc(CN4CCOCC4)cc3)c2n1` [Example 114], the pIC50 is 6.52.

With `COCCOc1nc(C)c2nc(-c3cncc(F)c3)n(Cc3ccc(CN4CCN(C)CC4)cc3)c2n1` [Example 115], the pIC50 was 7.00.

With `CCOc1nc(C)c2nc(-c3cncc(F)c3)n(Cc3ccc(CN4CC(C#N)C4)cc3)c2n1` [Example 116], the pIC50 is 6.80. Compared with the last compound, the pIC50 is 0.20 log units lower.

For `CCNc1nc(N)c2nc(-c3cncc(F)c3)n(Cc3ccc(CN(C)C)cc3)c2n1` [Example 117], the pIC50 was 5.15. Compared with the last compound, the pIC50 is 1.65 log units lower.

For `CN(C)Cc1ccc(Cn2c(-c3cncc(F)c3)nc3c(N)nc(Cl)nc32)cc1` [Example 118], the pIC50 is 6.02.
